Earlier results as cited in publication PMC3819144 (Biochemical pharmacology, 2013).

Experiments:
CXCR7 [1] = test system: CXCR7
CXCR7 [2] = settings: requires relatively high concentrations

effect on binding of CXCL12 to CXCR7 (CXCR7 [2]): enhance binding of CXCL12 to CXCR7
Compound: c1cc(CN2CCCNCCNCCCNCC2)ccc1CN1CCCNCCNCCCNCC1 [AMD3100]
CXCR7 signaling through β-arrestin 2 / recruitment of β-arrestin 2 (CXCR7 [1]): modestly activate CXCR7 signaling through β-arrestin 2
